Measurements: PubChem BioAssay (NCI)
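Dose response: 5 concentrations. Exposure: 48 h. Format: 96-well plates. Endpoint: linear interpolation; highest concentration if not reached. TGI is the concentration that stops growth completely.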

Experiments:
Assay in all cases: inhibition of tumour cell growth, NCI panel, 48 h
786-0 renal = test system: 786-0 renal
A498 renal = test system: A498 renal
A549 NSCLC = test system: A549 NSCLC
ACHN renal = test system: ACHN renal
BT-549 breast = test system: BT-549 breast
CAKI-1 renal = test system: CAKI-1 renal
CCRF-CEM leukemia = test system: CCRF-CEM leukemia
COLO 205 colon = test system: COLO 205 colon
DU-145 prostate = test system: DU-145 prostate
EKVX NSCLC = test system: EKVX NSCLC
HCC-2998 colon = test system: HCC-2998 colon
HCT-116 colon = test system: HCT-116 colon
HCT-15 colon = test system: HCT-15 colon
HL-60(TB) leukemia = test system: HL-60(TB) leukemia
HOP-62 NSCLC = test system: HOP-62 NSCLC
HOP-92 NSCLC = test system: HOP-92 NSCLC
HT29 colon = test system: HT29 colon
IGROV1 ovarian = test system: IGROV1 ovarian
K-562 leukemia = test system: K-562 leukemia
KM12 colon = test system: KM12 colon
LOX IMVI melanoma = test system: LOX IMVI melanoma
M14 melanoma = test system: M14 melanoma
MALME-3M melanoma = test system: MALME-3M melanoma
MCF7 breast = test system: MCF7 breast
MDA-MB-231 breast = test system: MDA-MB-231 breast
MDA-MB-435 = test system: MDA-MB-435
MDA-N = test system: MDA-N
MOLT-4 leukemia = test system: MOLT-4 leukemia
NCI-H226 lung = test system: NCI-H226 lung
NCI-H23 lung = test system: NCI-H23 lung
NCI-H460 lung = test system: NCI-H460 lung
NCI-H522 lung = test system: NCI-H522 lung
NCI/ADR-RES ovarian = test system: NCI/ADR-RES ovarian
OVCAR-3 ovarian = test system: OVCAR-3 ovarian
OVCAR-4 ovarian = test system: OVCAR-4 ovarian
OVCAR-5 ovarian = test system: OVCAR-5 ovarian
OVCAR-8 ovarian = test system: OVCAR-8 ovarian
PC-3 prostate = test system: PC-3 prostate
RPMI-8226 leukemia = test system: RPMI-8226 leukemia
RXF 393 renal = test system: RXF 393 renal
SF-295 CNS = test system: SF-295 CNS
SF-539 CNS = test system: SF-539 CNS
SK-MEL-2 melanoma = test system: SK-MEL-2 melanoma
SK-MEL-28 melanoma = test system: SK-MEL-28 melanoma
SK-MEL-5 melanoma = test system: SK-MEL-5 melanoma
SK-OV-3 ovarian = test system: SK-OV-3 ovarian
SN12C renal = test system: SN12C renal
SNB-19 CNS = test system: SNB-19 CNS
SNB-75 CNS = test system: SNB-75 CNS
SR leukemia = test system: SR leukemia
SW-620 colon = test system: SW-620 colon
T-47D breast = test system: T-47D breast
TK-10 renal = test system: TK-10 renal
U251 CNS = test system: U251 CNS
UACC-257 melanoma = test system: UACC-257 melanoma
UACC-62 melanoma = test system: UACC-62 melanoma
UO-31 renal = test system: UO-31 renal
SF-268 CNS = test system: SF-268 CNS

**Q.** Which results are given for `COc1ccc(NC(C)=O)cc1N1C(=O)/C(=C\c2cccc(Oc3ccccc3)c2)S(=O)(=O)C1c1ccccc1` (stereo not drawn)?
**A.** TGI (786-0 renal): > 100 µM; TGI (A498 renal): > 100 µM; TGI (A549 NSCLC): > 100 µM; TGI (ACHN renal): > 100 µM; TGI (BT-549 breast): > 100 µM; TGI (CAKI-1 renal): 44.8 µM; TGI (CCRF-CEM leukemia): 83.8 µM; TGI (COLO 205 colon): > 100 µM; TGI (DU-145 prostate): > 100 µM; TGI (EKVX NSCLC): > 100 µM; TGI (HCC-2998 colon): > 100 µM; TGI (HCT-116 colon): 31.3 µM; TGI (HCT-15 colon): > 100 µM; TGI (HL-60(TB) leukemia): 40.5 µM; TGI (HOP-62 NSCLC): > 100 µM; TGI (HOP-92 NSCLC): > 100 µM; TGI (HT29 colon): 43.7 µM; TGI (IGROV1 ovarian): > 100 µM; TGI (K-562 leukemia): 68.9 µM; TGI (KM12 colon): > 100 µM; TGI (LOX IMVI melanoma): > 100 µM; TGI (M14 melanoma): > 100 µM; TGI (MALME-3M melanoma): > 100 µM; TGI (MCF7 breast): > 100 µM; TGI (MDA-MB-231 breast): > 100 µM; TGI (MDA-MB-435): > 100 µM; TGI (MDA-N): 53.6 µM; TGI (MOLT-4 leukemia): 59 µM; TGI (NCI-H226 lung): > 100 µM; TGI (NCI-H23 lung): > 100 µM; TGI (NCI-H460 lung): > 100 µM; TGI (NCI-H522 lung): > 100 µM; TGI (NCI/ADR-RES ovarian): > 100 µM; TGI (OVCAR-3 ovarian): > 100 µM; TGI (OVCAR-4 ovarian): > 100 µM; TGI (OVCAR-5 ovarian): > 100 µM; TGI (OVCAR-8 ovarian): > 100 µM; TGI (PC-3 prostate): > 100 µM; TGI (RPMI-8226 leukemia): 73.6 µM; TGI (RXF 393 renal): > 100 µM; TGI (SF-295 CNS): > 100 µM; TGI (SF-539 CNS): 74.6 µM; TGI (SK-MEL-2 melanoma): > 100 µM; TGI (SK-MEL-28 melanoma): > 100 µM; TGI (SK-MEL-5 melanoma): > 100 µM; TGI (SK-OV-3 ovarian): > 100 µM; TGI (SN12C renal): 73 µM; TGI (SNB-19 CNS): > 100 µM; TGI (SNB-75 CNS): > 100 µM; TGI (SR leukemia): 23.9 µM; TGI (SW-620 colon): > 100 µM; TGI (T-47D breast): > 100 µM; TGI (TK-10 renal): > 100 µM; TGI (U251 CNS): > 100 µM; TGI (UACC-257 melanoma): > 100 µM; TGI (UACC-62 melanoma): > 100 µM; TGI (UO-31 renal): > 100 µM

**Q.** `Oc1ccc(-c2nc3ccc(F)cc3s2)cc1` was tested. Which TGI (786-0 renal) did it give?
**A.** 36 µM

**Q.** And the TGI (A549 NSCLC)?
**A.** 43.1 µM

**Q.** And the TGI (ACHN renal)?
**A.** 38.6 µM

**Q.** And the TGI (BT-549 breast)?
**A.** 37.4 µM

**Q.** What about the TGI (CAKI-1 renal) of the same molecule?
**A.** 37 µM

**Q.** What about the TGI (COLO 205 colon) of the same molecule?
**A.** 29.9 µM

**Q.** And the TGI (DU-145 prostate)?
**A.** 30.3 µM

**Q.** And the TGI (EKVX NSCLC)?
**A.** 25.4 µM

**Q.** And the TGI (HCT-116 colon)?
**A.** 32.9 µM

**Q.** What about the TGI (HCT-15 colon) of the same molecule?
**A.** 35 µM

**Q.** And the TGI (HL-60(TB) leukemia)?
**A.** 51.8 µM

**Q.** And the TGI (HT29 colon)?
**A.** 31.3 µM

**Q.** What about the TGI (IGROV1 ovarian) of the same molecule?
**A.** 34.6 µM

**Q.** What about the TGI (K-562 leukemia) of the same molecule?
**A.** > 100 µM

**Q.** What about the TGI (KM12 colon) of the same molecule?
**A.** 33.8 µM

**Q.** And the TGI (LOX IMVI melanoma)?
**A.** 39.7 µM

**Q.** What about the TGI (M14 melanoma) of the same molecule?
**A.** 37.3 µM

**Q.** And the TGI (MALME-3M melanoma)?
**A.** 38.5 µM

**Q.** What about the TGI (MCF7 breast) of the same molecule?
**A.** 59.1 µM

**Q.** And the TGI (MDA-MB-231 breast)?
**A.** 49 µM

**Q.** And the TGI (MDA-MB-435)?
**A.** 41.5 µM

**Q.** What about the TGI (MDA-N) of the same molecule?
**A.** 70.6 µM

**Q.** What about the TGI (MOLT-4 leukemia) of the same molecule?
**A.** > 100 µM

**Q.** What about the TGI (NCI-H226 lung) of the same molecule?
**A.** 44.5 µM

**Q.** And the TGI (NCI-H23 lung)?
**A.** 48.3 µM

**Q.** What about the TGI (NCI-H460 lung) of the same molecule?
**A.** 59 µM

**Q.** And the TGI (NCI-H522 lung)?
**A.** 26.9 µM

**Q.** And the TGI (NCI/ADR-RES ovarian)?
**A.** 52.8 µM

**Q.** What about the TGI (OVCAR-3 ovarian) of the same molecule?
**A.** 90.9 µM

**Q.** What about the TGI (OVCAR-4 ovarian) of the same molecule?
**A.** 58.1 µM

**Q.** What about the TGI (OVCAR-5 ovarian) of the same molecule?
**A.** 44.7 µM

**Q.** What about the TGI (OVCAR-8 ovarian) of the same molecule?
**A.** 39.9 µM

**Q.** What about the TGI (PC-3 prostate) of the same molecule?
**A.** 44.5 µM

**Q.** What about the TGI (RPMI-8226 leukemia) of the same molecule?
**A.** 63.9 µM

**Q.** What about the TGI (RXF 393 renal) of the same molecule?
**A.** 68.2 µM

**Q.** And the TGI (SF-268 CNS)?
**A.** 58.9 µM

**Q.** What about the TGI (SF-295 CNS) of the same molecule?
**A.** 33.9 µM

**Q.** What about the TGI (SF-539 CNS) of the same molecule?
**A.** 34 µM

**Q.** And the TGI (SK-MEL-2 melanoma)?
**A.** 34.9 µM

**Q.** What about the TGI (SK-MEL-5 melanoma) of the same molecule?
**A.** 38 µM

**Q.** What about the TGI (SK-OV-3 ovarian) of the same molecule?
**A.** 42.8 µM

**Q.** And the TGI (SN12C renal)?
**A.** 40.9 µM

**Q.** What about the TGI (SNB-19 CNS) of the same molecule?
**A.** 51.2 µM

**Q.** And the TGI (SR leukemia)?
**A.** 53.4 µM

**Q.** And the TGI (SW-620 colon)?
**A.** > 100 µM

**Q.** And the TGI (T-47D breast)?
**A.** 36 µM

**Q.** And the TGI (TK-10 renal)?
**A.** 34.1 µM

**Q.** What about the TGI (U251 CNS) of the same molecule?
**A.** 39.9 µM

**Q.** And the TGI (UACC-257 melanoma)?
**A.** 37.2 µM

**Q.** And the TGI (UACC-62 melanoma)?
**A.** 34.8 µM

**Q.** And the TGI (UO-31 renal)?
**A.** 30.1 µM
